In PubChem BioAssay AID256 (DTP/NCI, 2004) one finds T/C data, which are given here for 19 compounds.

This assay relates to CD2F1 mice, L1210 leukemia ip, survival T/C. Description: NCI In Vivo Anticancer Drug Screen. Data for tumor model L1210 Leukemia (intraperitoneal) in CD2F1 (CDF1) mice. The conditions noted are these: higher = longer survival. The method in brief: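 Compound-dosed mice with transplantable tumor versus matched vehicle controls; endpoint ratio T/C reported.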
Setting [1] is: endpoint: mean survival time, dose: 100.0 mg/kg/injection, schedule: Q01DX001 (ip), vehicle: saline with Tween-80.
Setting [2] is: endpoint: mean survival time, dose: 100.0 mg/kg/injection, schedule: Q01DX009 (ip), vehicle: saline with Tween-80.
Where [3] appears, read: endpoint: mean survival time, dose: 100.0 mg/kg/injection, schedule: Q04DX003 (ip), vehicle: saline with Tween-80.
The mark [4] stands for this setting: endpoint: mean survival time, dose: 200.0 mg/kg/injection, schedule: Q01DX001 (ip), vehicle: saline with Tween-80.
Setting [5] is: endpoint: mean survival time, dose: 200.0 mg/kg/injection, schedule: Q01DX009 (ip), vehicle: saline with Tween-80.
The mark [6] stands for this setting: endpoint: mean survival time, dose: 200.0 mg/kg/injection, schedule: Q04DX003 (ip), vehicle: saline with Tween-80.
Setting [7] is: endpoint: mean survival time, dose: 400.0 mg/kg/injection, schedule: Q01DX009 (ip), vehicle: saline with Tween-80.
Where [8] appears, read: endpoint: mean survival time, dose: 400.0 mg/kg/injection, schedule: Q04DX003 (ip), vehicle: saline with Tween-80.
Setting [9] is: endpoint: mean survival time, dose: 25.0 mg/kg/injection, schedule: Q01DX009 (ip), vehicle: saline.
[10] abbreviates: endpoint: mean survival time, dose: 50.0 mg/kg/injection, schedule: Q01DX009 (ip), vehicle: saline.
The mark [11] stands for this setting: endpoint: mean survival time, dose: 200.0 mg/kg/injection, schedule: Q01DX009 (ip), vehicle: saline.
Where [12] appears, read: endpoint: mean survival time, dose: 100.0 mg/kg/injection, schedule: Q01DX009 (ip), vehicle: saline.

Structures are written as SMILES. Where “and” joins values, the source holds several entries; their conditions need not be identical. Equal entries are not always repeated. Inconclusive results and toxic doses are left out.

As to `O=C(COc1ccccc1)NC(=S)Nc1ccc(Cl)c(Cl)c1`, the T/C (endpoint: mean survival time, dose: 25.0 mg/kg/injection, schedule: Q04DX002 (ip), vehicle: saline with Tween-80) is 97 % of control and 105 % of control; the T/C (endpoint: mean survival time, dose: 50.0 mg/kg/injection, schedule: Q01DX001 (ip), vehicle: saline with Tween-80) was 101 % of control; the T/C (endpoint: mean survival time, dose: 50.0 mg/kg/injection, schedule: Q01DX009 (ip), vehicle: saline with Tween-80) is 98 % of control and 102 % of control; the T/C (endpoint: mean survival time, dose: 50.0 mg/kg/injection, schedule: Q04DX003 (ip), vehicle: saline with Tween-80) is 98 % of control; the T/C under setting [1] was 101 % of control; the T/C under setting [2] was 98 % of control and 106 % of control. The T/C under setting [3] was 96 % of control; the T/C under setting [4] is 95 % of control; the T/C under setting [5] was 93 % of control and 96 % of control; the T/C under setting [6] was 98 % of control.

As for `COc1cc2c(cc1C(C)C)CCC1C(C)(C(=O)O)CCCC21C` (centres undefined), the T/C runs as follows: under setting [1], 100 % of control; (endpoint: mean survival time, dose: 100.0 mg/kg/injection, schedule: Q01DX009 (ip), vehicle: saline sonified) 95 % of control; under setting [4], 97 % of control; (endpoint: mean survival time, dose: 200.0 mg/kg/injection, schedule: Q01DX009 (ip), vehicle: saline sonified) 97 % of control; (endpoint: mean survival time, dose: 400.0 mg/kg/injection, schedule: Q01DX001 (ip), vehicle: saline with Tween-80) 102 % of control; (endpoint: mean survival time, dose: 400.0 mg/kg/injection, schedule: Q01DX009 (ip), vehicle: saline sonified) 96 % of control.

Regarding `O=C(O)C1CC2C=CC1C2` (centres undefined), the T/C reads like this: under setting [2], 94 % of control; under setting [3], 96 % of control; under setting [5], 91 % of control; under setting [6], 96 % of control; under setting [7], 94 % of control; under setting [8], 94 % of control.

Take `CCC1(O)C(=O)OCc2c1cc1n(c2=O)Cc2cc3ccc(C(=O)OC)cc3nc2-1` (centres undefined): the T/C is, setting by setting: (endpoint: median survival time, dose: 10.0 mg/kg/injection, schedule: Q04DX002 (ip), vehicle: saline with Tween-80) 107 % of control; (endpoint: median survival time, dose: 20.0 mg/kg/injection, schedule: Q04DX002 (ip), vehicle: saline with Tween-80) 100 % of control; (endpoint: median survival time, dose: 40.0 mg/kg/injection, schedule: Q04DX002 (ip), vehicle: saline with Tween-80) 106 % of control; (endpoint: median survival time, dose: 80.0 mg/kg/injection, schedule: Q04DX002 (ip), vehicle: saline with Tween-80) 107 % of control.

`CC1Sc2ccccc2-c2[nH]c3ccccc3c21` (centres undefined): the T/C reads like this: under setting [3], 97 % of control; under setting [6], 87 % of control; under setting [8], 90 % of control.

In the case of `NC1=NC(=O)N2CC12` (centres undefined), the T/C was 100 % of control (endpoint: mean survival time, dose: 12.5 mg/kg/injection, schedule: Q01DX009 (ip), vehicle: other); 107 % of control (endpoint: mean survival time, dose: 12.5 mg/kg/injection, schedule: Q01DX009 (ip), vehicle: saline); 100 % of control (endpoint: mean survival time, dose: 25.0 mg/kg/injection, schedule: Q01DX009 (ip), vehicle: other); 106 % of control and 110 % of control under setting [9]; 105 % of control (endpoint: mean survival time, dose: 50.0 mg/kg/injection, schedule: Q01DX009 (ip), vehicle: other); 115 % of control and 110 % of control under setting [10]. Under setting [11], the T/C is 156 % of control and 173 % of control.

For the compound `CCCCCCCCCCCCCCCCCCCC`, the T/C runs as follows: (endpoint: mean survival time, dose: 25.0 mg/kg/injection, schedule: Q04DX003 (ip), vehicle: other) 90 % of control; (endpoint: mean survival time, dose: 50.0 mg/kg/injection, schedule: Q04DX003 (ip), vehicle: other) 91 % of control; (endpoint: mean survival time, dose: 100.0 mg/kg/injection, schedule: Q04DX003 (ip), vehicle: other) 88 % of control.

Take `Oc1ccccc1OCCOCCOc1ccccc1O`: the T/C runs as follows: (endpoint: mean survival time, dose: 50.0 mg/kg/injection, schedule: Q04DX002 (ip), vehicle: other) 100 % of control; (endpoint: mean survival time, dose: 100.0 mg/kg/injection, schedule: Q04DX002 (ip), vehicle: other) 88 % of control; (endpoint: mean survival time, dose: 200.0 mg/kg/injection, schedule: Q04DX002 (ip), vehicle: other) 103 % of control; (endpoint: mean survival time, dose: 400.0 mg/kg/injection, schedule: Q04DX002 (ip), vehicle: other) 103 % of control.

`O=c1nc(NC2CC2)ccn1C1OC(CO)C(O)C1O` (centres undefined): the T/C reads like this: (endpoint: median survival time, dose: 12.5 mg/kg/injection, schedule: Q01DX005 (ip), vehicle: water) 97 % of control; (endpoint: median survival time, dose: 25.0 mg/kg/injection, schedule: Q01DX005 (ip), vehicle: water) 106 % of control; (endpoint: median survival time, dose: 50.0 mg/kg/injection, schedule: Q01DX005 (ip), vehicle: water) 107 % of control; (endpoint: median survival time, dose: 100.0 mg/kg/injection, schedule: Q01DX005 (ip), vehicle: water) 107 % of control; (endpoint: median survival time, dose: 200.0 mg/kg/injection, schedule: Q01DX005 (ip), vehicle: water) 101 % of control.

In the case of `ClC1CCC[N-]C1.ClC1CCC[N-]C1.[Cl][Pt+2]([Cl])([Cl])[Cl]` (centres undefined), the T/C is, setting by setting: (endpoint: mean survival time, dose: 0.78 mg/kg/injection, schedule: Q01DX009 (ip), vehicle: saline with Tween-80) 102 % of control; (endpoint: mean survival time, dose: 1.56 mg/kg/injection, schedule: Q01DX009 (ip), vehicle: saline with Tween-80) 109 % of control; (endpoint: mean survival time, dose: 3.13 mg/kg/injection, schedule: Q01DX009 (ip), vehicle: saline with Tween-80) 105 % of control; (endpoint: mean survival time, dose: 6.25 mg/kg/injection, schedule: Q01DX009 (ip), vehicle: saline with Tween-80) 112 % of control; (endpoint: mean survival time, dose: 12.5 mg/kg/injection, schedule: Q01DX009 (ip), vehicle: saline with Tween-80) 104 % of control.

On to `CCCCCCCCCCCOc1ccccc1Cl`, for which the T/C is 90 % of control (endpoint: mean survival time, dose: 100.0 mg/kg/injection, schedule: Q04DX002 (ip), vehicle: saline with Tween-80); 93 % of control (endpoint: mean survival time, dose: 200.0 mg/kg/injection, schedule: Q04DX002 (ip), vehicle: saline with Tween-80); 93 % of control (endpoint: mean survival time, dose: 400.0 mg/kg/injection, schedule: Q04DX002 (ip), vehicle: saline with Tween-80).

`O.O=C(O)CN(CCN(CC(=O)O)CC(=O)O)CC(=O)O.[Rh+2]`: the T/C was 100 % of control under setting [12]; 94 % of control under setting [11]; 95 % of control (endpoint: mean survival time, dose: 200.0 mg/kg/injection, schedule: Q04DX003 (ip), vehicle: saline sonified); 96 % of control (endpoint: mean survival time, dose: 400.0 mg/kg/injection, schedule: Q01DX009 (ip), vehicle: saline).

Consider `COc1ccccc1/C=C\C(=O)C1COCN1` (centres undefined), for which the T/C reads like this: (endpoint: mean survival time, dose: 37.5 mg/kg/injection, schedule: Q01DX009 (ip), vehicle: saline) 98 % of control; (endpoint: mean survival time, dose: 75.0 mg/kg/injection, schedule: Q01DX009 (ip), vehicle: saline) 98 % of control; (endpoint: mean survival time, dose: 150.0 mg/kg/injection, schedule: Q01DX009 (ip), vehicle: saline) 98 % of control.

Take `Cc1cc(SCc2ccccc2)cc(C)[o+]1`: the T/C is, setting by setting: (endpoint: mean survival time, dose: 75.0 mg/kg/injection, schedule: Q01DX001 (ip), vehicle: saline) 106 % of control; (endpoint: mean survival time, dose: 150.0 mg/kg/injection, schedule: Q01DX001 (ip), vehicle: saline) 93 % of control.

As to `C=CC[n+]1ccc2ccccc2c1`, where the note is “endpoint: mean survival time, dose: 100.0 mg/kg/injection, schedule: Q04DX003 (ip), vehicle: saline sonified”, the T/C is 97 % of control.

In the case of `COC1OC2COc3ccccc3OC2C(N)C1N(C)c1ccccc1` (centres undefined), the T/C by setting is: (endpoint: mean survival time, dose: 75.0 mg/kg/injection, schedule: Q01DX001 (ip), vehicle: saline with Tween-80) 100 % of control; (endpoint: mean survival time, dose: 150.0 mg/kg/injection, schedule: Q01DX001 (ip), vehicle: saline with Tween-80) 97 % of control.

As to `ONc1ccccn1`, the T/C under setting [9] is 101 % of control; the T/C under setting [10] was 96 % of control; the T/C (endpoint: mean survival time, dose: 50.0 mg/kg/injection, schedule: Q04DX003 (ip), vehicle: saline) was 98 % of control; the T/C under setting [12] is 95 % of control; the T/C (endpoint: mean survival time, dose: 100.0 mg/kg/injection, schedule: Q04DX003 (ip), vehicle: saline) is 98 % of control.

For `NCCc1ccncc1`, the T/C is 92 % of control (endpoint: mean survival time, dose: 100.0 mg/kg/injection, schedule: Q04DX002 (ip), vehicle: saline); 92 % of control (endpoint: mean survival time, dose: 200.0 mg/kg/injection, schedule: Q04DX002 (ip), vehicle: saline); 111 % of control (endpoint: mean survival time, dose: 400.0 mg/kg/injection, schedule: Q04DX002 (ip), vehicle: saline).

On to `Nc1ccccc1NS(=O)(=O)c1ccc(Cl)cc1`, for which the T/C by setting is: under setting [2], 95 % of control; under setting [5], 101 % of control; under setting [7], 106 % of control.
